Source: US8710233B2 (Gruenenthal GmbH, priority 2005, dated 2014)
Like-named read-outs stand apart in the source and are kept apart here.

Key:
[1] = biological target: VR1/TRPV1 receptor (Homo sapiens, UniProt Q8NER1); experiment: IC50 (human) after pH stimulus; type: cell-based; details: table 4
[2] = tested on: capsaicin induced hypothermie; experiment: Hypothermie assay in the mouse (capsaicin induced hypothermie); type: in vivo; details: read-out: inhibition hypothermie (n = 5)
[3] = tested on: formaldehyde induced nociceptive behaviour; experiment: Formaldehyde test in mice, second (late) phase; type: in vivo, mouse; details: mouse, read-out: inhibition formaldehyde test (n = 10); for inhibition in vivo at 0.3 mg/kg: 0.3 mg/kg body weight po; for inhibition in vivo at 0.1 mg/kg: 0.1 mg/kg body weight po
[4] = biological target: T1, vanilloid receptor (VR1) (Homo sapiens, UniProt Q8NER1); experiment: FLIPR Ca2+ influx assay on CHO K1 cells transfected with the VR1 gene (pharmacological method II); type: cell-based; details: table 4; capsaicin; read-out: Ki (human) Cap.
T1 construct: expressed in transfected cells; host or cells: CHO K1 cells (ECACC), stably transfected

[5] = biological target: T2, vanilloid receptor 1 (VR1/TRPV1) of the rat species (Rattus norvegicus, UniProt O35433); experiment: FLIPR Ca2+ influx assay on rat dorsal root ganglia cells (pharmacological method I); type: cell-based; details: for Ki: table 4, capsaicin
T2 construct: The spinal column is removed from decapitated rats; from tissue; host or cells: primary cells dissociated from rat dorsal root ganglia
Procedure, shortened: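 Primary rat dorsal root ganglion cells loaded with 2 μM Fluo-4, Ca2+ influx read on FLIPR as peak fluorescence. Triplicates, at least 3 independent experiments.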

[6] = 0.3 mg/kg body weight po, mouse

T2 sequence (O35433 whole entry): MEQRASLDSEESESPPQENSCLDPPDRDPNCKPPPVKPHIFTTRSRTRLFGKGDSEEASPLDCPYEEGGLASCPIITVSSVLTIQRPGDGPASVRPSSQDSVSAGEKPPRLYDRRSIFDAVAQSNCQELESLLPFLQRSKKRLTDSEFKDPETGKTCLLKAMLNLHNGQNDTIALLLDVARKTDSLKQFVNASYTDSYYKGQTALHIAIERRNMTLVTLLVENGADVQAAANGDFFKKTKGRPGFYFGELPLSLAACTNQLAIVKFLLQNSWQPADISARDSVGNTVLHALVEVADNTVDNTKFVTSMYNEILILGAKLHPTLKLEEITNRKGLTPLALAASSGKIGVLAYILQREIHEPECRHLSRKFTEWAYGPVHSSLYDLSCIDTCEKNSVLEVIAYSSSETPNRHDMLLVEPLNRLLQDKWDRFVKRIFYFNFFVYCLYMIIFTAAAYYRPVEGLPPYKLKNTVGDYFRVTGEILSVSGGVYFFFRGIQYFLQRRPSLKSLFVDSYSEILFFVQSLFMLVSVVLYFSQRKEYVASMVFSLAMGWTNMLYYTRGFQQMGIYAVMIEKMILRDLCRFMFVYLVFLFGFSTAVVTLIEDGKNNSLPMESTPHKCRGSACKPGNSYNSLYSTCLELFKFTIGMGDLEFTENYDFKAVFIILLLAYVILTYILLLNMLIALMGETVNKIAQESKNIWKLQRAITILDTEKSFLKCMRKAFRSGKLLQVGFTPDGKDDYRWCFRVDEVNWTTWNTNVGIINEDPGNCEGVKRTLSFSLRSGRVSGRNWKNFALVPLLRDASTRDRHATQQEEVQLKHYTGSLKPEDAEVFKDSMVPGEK
T1 sequence (Q8NER1 whole entry): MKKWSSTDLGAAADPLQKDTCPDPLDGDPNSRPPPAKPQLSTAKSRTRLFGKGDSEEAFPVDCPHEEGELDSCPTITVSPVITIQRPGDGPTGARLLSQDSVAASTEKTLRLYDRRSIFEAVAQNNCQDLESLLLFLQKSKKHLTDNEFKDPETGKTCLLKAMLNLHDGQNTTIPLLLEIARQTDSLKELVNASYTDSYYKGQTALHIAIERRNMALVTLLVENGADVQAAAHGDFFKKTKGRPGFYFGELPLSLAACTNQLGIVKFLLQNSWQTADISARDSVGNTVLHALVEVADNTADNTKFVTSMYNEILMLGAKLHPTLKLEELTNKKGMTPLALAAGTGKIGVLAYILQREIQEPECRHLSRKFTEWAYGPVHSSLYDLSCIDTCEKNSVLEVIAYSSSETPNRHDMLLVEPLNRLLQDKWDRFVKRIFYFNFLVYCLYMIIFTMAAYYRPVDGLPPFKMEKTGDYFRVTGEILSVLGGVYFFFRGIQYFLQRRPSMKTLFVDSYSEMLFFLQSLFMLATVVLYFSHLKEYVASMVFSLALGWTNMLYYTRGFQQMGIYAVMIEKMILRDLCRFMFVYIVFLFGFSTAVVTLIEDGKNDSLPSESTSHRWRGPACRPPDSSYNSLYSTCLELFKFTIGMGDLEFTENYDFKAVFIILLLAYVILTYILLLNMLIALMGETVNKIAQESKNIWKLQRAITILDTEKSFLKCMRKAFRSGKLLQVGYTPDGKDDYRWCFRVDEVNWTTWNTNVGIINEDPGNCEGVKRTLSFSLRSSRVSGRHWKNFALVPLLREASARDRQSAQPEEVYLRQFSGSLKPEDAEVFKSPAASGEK
Sequence of VR1/TRPV1 receptor (Q8NER1 whole entry): as above

| Compound | IC50 [1] [nM] | inhibition in vivo at 0.3 mg/kg [2, 6] [%] | inhibition in vivo at 0.3 mg/kg [3] [%] | Ki [4] [nM] | Ki ([5]; read-out: Ki (rat) Cap.) [nM] | inhibition in vivo at 0.1 mg/kg [3] [%] | inhibition in vivo at 0.1 mg/kg ([2]; 0.1 mg/kg body weight po, mouse) [%] | inhibition in vivo at 0.3 mg/kg ([2]; Mus musculus, po) [%] | inhibition at 1 µM ([5]; read-out: inhibition in percent, Ki (rat) Cap.) [%] | Ki ([5]; Ki (rat) Cap.) [nM] |
| --- | --- | --- | --- | --- | --- | --- | --- | --- | --- | --- |
| CC(C(=O)NCc1ccc(C(F)(F)F)nc1NCc1ccc(Cl)cc1)c1ccc(NS(C)(=O)=O)c(F)c1 (stereo not shown) [Example 173, N-[2-(4-chloro-benzylamino)-6-trifluoromethyl-pyridin-3-ylmethyl]-2-(3-fluoro-4-methylsulfonamido-phenyl)-propionamide] | 414 | 36 | 0 | 65.7 | 78.4 | – | – | – | – | – |
| CCCCNc1nc(C(F)(F)F)ccc1CNC(=O)C(C)c1ccc(NS(C)(=O)=O)c(F)c1 (stereo not shown) [Example 116, N-(2-butylamino-6-trifluoromethyl-pyridin-3-ylmethyl)-2-(3-fluoro-4-methylsulfonamido-phenyl)-propionamide] | 293 | 21 | – | 9.1 | 6.6 | 39 | – | – | – | – |
| CC(C(=O)NCc1ccc(C(F)(F)F)cc1N1CCCCCCC1)c1ccc(NS(C)(=O)=O)c(F)c1 (stereo not shown) [Example 217, N-(2-azocan-1-yl-4-trifluoromethyl-benzyl)-2-(3-fluoro-4-methylsulfonamido-phenyl)-propionamide] | 36.5 | – | 9 | 2.8 | 1.1 | – | 40 | – | – | – |
| CCCCOc1cc(C(C)(C)C)ccc1CNC(=O)C(C)c1ccc(NS(C)(=O)=O)c(F)c1 (stereo not shown) [Example 108, N-(2-butoxy-4-tert-butyl-benzyl)-2-(3-fluoro-4-methylsulfonamido-phenyl)-propionamide] | 114 | 38 | 15 | 1.4 | 0.6 | – | – | – | – | – |
| CC(C(=O)NCc1ccc(C(F)(F)F)nc1-c1cccc(F)c1)c1ccc(NS(C)(=O)=O)c(F)c1 (stereo not shown) [Example 148, 2-(3-fluoro-4-methylsulfonamido-phenyl)-N-[2-(3-fluoro-phenyl)-6-trifluoromethyl-pyridin-3-ylmethyl]-propionamide] | 63.6 | 45 | 44 | 1.3 | 1.1 | – | – | – | – | – |
| CC(C(=O)NCc1ccc(C(F)(F)F)nc1-c1cccs1)c1ccc(NS(C)(=O)=O)c(F)c1 (stereo not shown) [Example 88, 2-(3-fluoro-4-methylsulfonamido-phenyl)-N-((6-(trflluoromethyl)-2-(thiophen-2-yl)pyridin-3-yl)methyl)-propionamide] | 57.1 | 38 | 4 | 0.3 | 5 | – | – | – | – | – |
| CC(C(=S)NCc1ccc(C(F)(F)F)nc1-c1ccc(F)cc1)c1ccc(NS(C)(=O)=O)c(F)c1 (stereo not shown) [Example 130, 2-(3-fluoro-4-methylsulfonamido-phenyl)-N-[2-(4-fluoro-phenyl)-6-trifluoromethyl-pyridin-3-ylmethyl]-thiopropionamide] | 34.3 | 58 | 41 | 2.1 | 4.5 | – | – | – | – | – |
| CC1CCN(c2nc(C(F)(F)F)ccc2CNC(=O)C(C)c2ccc(NS(C)(=O)=O)c(F)c2)CC1 (stereo not shown) [Example 80, 2-(3-fluoro-4-methylsulfonamido-phenyl)-N-(2-4-methylpiperidin-1-yl-6-trifluoromethyl-pyridin-3-ylmethyl)-propionamide] | 5.4 | – | 58 | 0.3 | 0.6 | – | – | 66 | – | – |
| CC(C(=O)NCc1ccc(C(F)(F)Cl)nc1OC1CCCCC1)c1ccc(NS(C)(=O)=O)c(F)c1 (stereo not shown) [Example 168, N-[6-(chloro-difluoro-methyl)-2-cyclohexyloxy-pyridin-3-ylmethyl]-2-(3-fluoro-4-methylsulfonamido-phenyl)-propionamide] | 17.6 | 21 | 1 | 0.9 | 1.4 | – | – | – | – | – |
| CC(C(=O)NCc1ccc(C(F)(F)F)nc1OCc1ccncc1)c1ccc(NS(C)(=O)=O)c(F)c1 (stereo not shown) [Example 177, 2-(3-fluoro-4-methylsulfonamido-phenyl)-N-[2-(pyridin-4-ylmethoxy)-6-trifluoromethyl-pyridin-3-ylmethyl]-propionamide] | 1290 | 14 | 31 | 51 | – | – | – | – | 34 | – |
| CC(C(=O)NCc1ccc(C(F)(F)Cl)nc1OCc1ccccn1)c1ccc(NS(C)(=O)=O)c(F)c1 (stereo not shown) [Example 182, N-[6-(chloro-difluoro-methyl)-2-(pyridin-2-ylmethoxy)-pyridin-3-ylmethyl]-2-(3-fluoro-4-methylsulfonamido-phenyl)-propionamide] | 637 | 45 | 1 | 4.2 | 7.3 | – | – | – | – | – |
| CC(C(=O)NCc1ccc(C(F)(F)F)nc1NC1CCCCC1)c1ccc(NS(C)(=O)=O)c(F)c1 (stereo not shown) [Example 90, N-(2-cyclohexylamino-6-trifluoromethyl-pyridin-3-ylmethyl)-2-(3-fluoro-4-methylsulfonamido-phenyl)-propionamide] | 260 | 81 | 46 | 20.4 | 47 | – | – | – | – | – |
| COC1CCN(c2nc(C(F)(F)F)ccc2CNC(=O)C(C)c2ccc(NS(C)(=O)=O)c(F)c2)CC1 (stereo not shown) [Example 159, 2-(3-fluoro-4-methylsulfonamido-phenyl)-N-(4-methoxy-6′-trifluoromethyl-3,4,5,6-tetrahydro-2H-[1,2′]bipyridinyl-3′-ylmethyl)-propionamide] | 280 | 28 | 10 | 2.4 | 21.4 | – | – | – | – | – |
| CCCCN(C)c1nc(C(F)(F)F)ccc1CNC(=O)C(C)c1ccc(NS(C)(=O)=O)c(F)c1 (stereo not shown) [Example 167, N-[2-(butyl-methyl-amino)-6-trifluoromethyl-pyridin-3-ylmethyl]-2-(3-fluoro-4-methylsulfonamido-phenyl)-propionamide] | 21.3 | 19 | – | 0.8 | 2.8 | 62 | – | – | – | – |
| CCC1CCC(Oc2nc(C(F)(F)F)ccc2CNC(=O)C(C)c2ccc(NS(C)(=O)=O)c(F)c2)CC1 (stereo not shown) [Example 171, N-[2-(4-ethyl-cyclohexyloxy)-6-trifluoromethyl-pyridin-3-ylmethyl]-2-(3-fluoro-4-methylsulfonamido-phenyl)-propionamide] | 125 | 32 | 45 | 4.8 | – | – | – | – | – | 2.4 |
| CC(C(=O)NCc1ccc(C(F)(F)F)nc1-c1ccc(C(C)(C)C)cc1)c1ccc(NS(C)(=O)=O)c(F)c1 (stereo not shown) [Example 117] | 23.5 | 70 | 5 | 0.5 | 0.5 | – | – | – | – | – |
| CC(C(=O)NCc1ccc(C(F)(F)F)nc1N1CCN(c2ccc(F)cc2)CC1)c1ccc(NS(C)(=O)=O)c(F)c1 (stereo not shown) [Example 179, 2-(3-fluoro-4-methylsulfonamido-phenyl)-N-{2-[4-(4-fluoro-phenyl)-piperazin-1-yl]-6-trifluoromethyl-pyridin-3-ylmethyl}-propionamide] | 23.1 | 57 | 5 | 1.1 | 1 | – | – | – | – | – |
